In assay [1] the target is T1, MARK4 (Homo sapiens, UniProt Q96L34).
T1 sequence (Q96L34 1-752): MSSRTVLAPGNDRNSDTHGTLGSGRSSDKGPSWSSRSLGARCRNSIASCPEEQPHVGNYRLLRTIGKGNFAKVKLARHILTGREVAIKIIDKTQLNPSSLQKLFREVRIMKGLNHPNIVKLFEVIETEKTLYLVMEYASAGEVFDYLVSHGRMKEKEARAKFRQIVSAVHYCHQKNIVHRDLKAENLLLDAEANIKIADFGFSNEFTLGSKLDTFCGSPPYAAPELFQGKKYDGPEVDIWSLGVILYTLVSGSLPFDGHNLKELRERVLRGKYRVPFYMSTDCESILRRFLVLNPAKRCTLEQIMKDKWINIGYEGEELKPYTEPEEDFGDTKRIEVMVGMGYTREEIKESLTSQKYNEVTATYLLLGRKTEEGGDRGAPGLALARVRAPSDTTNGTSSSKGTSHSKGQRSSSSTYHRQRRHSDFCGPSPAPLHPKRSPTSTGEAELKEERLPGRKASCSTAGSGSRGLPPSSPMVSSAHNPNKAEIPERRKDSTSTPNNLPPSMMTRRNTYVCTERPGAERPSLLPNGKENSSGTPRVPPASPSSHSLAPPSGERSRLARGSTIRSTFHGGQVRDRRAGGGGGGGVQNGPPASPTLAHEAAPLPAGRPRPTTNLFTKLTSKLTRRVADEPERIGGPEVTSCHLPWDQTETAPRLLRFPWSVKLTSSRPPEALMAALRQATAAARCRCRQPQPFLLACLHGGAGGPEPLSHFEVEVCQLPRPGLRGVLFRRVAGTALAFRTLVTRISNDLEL
In words: ATPase inhibition assay (Malachite green) with purified MARK4. The assay is classed as biochemical. The following applies: MARK4 5 μM, ATP 200 μM, ligand 0–10 μM, 1 h at 25°C, read-out: IC50 against MARK4. The protocol: Purified MARK4 was used to conduct ATPase inhibition experiment following the reported method ([18], [30]). The concentration of the purified protein used was 5 μM, the ligand concentration was 0–10 μM and the substrate (ATP) was 200 μM. The ligand concentration was increased gradually against a given concentration of MARK4. The experiment involved combining MARK4 with freshly prepared ATP, resulting in a final reaction mixture volume of 100 μL. This mixture was incubated for 1 h at 25°C. This is followed by the addition of Malachite green solution (200 μL) to quench the reaction. The samples were allowed to incubate at room temperature for color development. Finally, the reaction mixture (100 μL) was filled into 96-well plates and analyzed using a multiscan ELISA reader (λ = 620 nm). All experimental reactions were conducted in triplicate to ensure statistical reliability.

The target of assay [2] is MARK4 enzyme. The following applies: cited from earlier work.
Assay [3] has as its target T1, MARK4. As to the kind of experiment: Fluorescence quenching binding assay. The following applies: modified Stern-Volmer equation; excitation 280 nm; read-out: binding constant (K) (converted). The protocol: A fluorescence-based binding assay was conducted to evaluate the binding efficiency of ligands. During the titration, the concentration of the pure MARK4 protein was kept constant while increasing concentrations of the ligand ([31]). The emission data were collected using a Jasco FP-6200 spectrofluorimeter (Japan), with a slit width of 10 nm and medium sensitivity. The samples were excited at 280 nm, and the emission spectra were recorded. Blank subtracted spectra are reported, and each measurement was performed in triplicate. For fluorescence values, we took the inner filter effect into account ([32]). The binding constant (K) was calculated using the Stern-Volmer (SV) (Equations 1, 2). (1) F0/F=1+KsvC (2) logF0−F/F=logK+nlogC Where F0 denotes the fluorescence intensity of the protein in the absence of ligands, whereas F indicates the fluorescence intensity when ligands are present. K represents the binding constant, n indicates the number of binding sites, and C refers to the concentration of the ligand.

Where [4] appears, read: read-out: IC50 MARK4 enzyme in vitro.

SMILES strings stand for the structures. Like-named read-outs stand apart in the source and are kept apart here.

For `N=C(N)N1CCN(c2cc(-c3ccc(F)c(Cl)c3)ncn2)CC1` [Compound 7, 4-(6-(3-Chloro-4-fluorophenyl)pyrimidin-4-yl)piperazine-1-carboximidamide], the IC50 (usually the midpoint of a concentration-inhibition curve) in assay [1] was 16.5 ± 1.71 µM.

In the case of `N=C(N)N1CCN(c2cc(-c3ccc(C(F)(F)F)cc3)ncn2)CC1` [Compound 8, 4-(6-(4-(Trifluoromethyl)phenyl)pyrimidin-4-yl)piperazine-1-carboximidamide], in assay [1], the IC50 was found to be 15.8 ± 0.92 µM.

Regarding `CCN(C)C(=O)Oc1cccc([C@H](C)N(C)C)c1` [rivastigmine], the concentration for half-maximal inhibition (IC50) in assay [2] (setting [4]) was 6.74 µM.

On to `N=C(N)N1CCN(c2cc(-c3ccc(OC(F)(F)F)cc3)ncn2)CC1` [Compound 10, 4-(6-(4-(Trifluoromethoxy)phenyl)pyrimidin-4-yl)piperazine-1-carboximidamide], for which the IC50 in assay [1] was found to be 7.28 ± 0.49 µM.

As for `Cc1ccc(-c2cc(N3CCN(C(=N)N)CC3)ncn2)cc1` [Compound 5, 4-(6-(p-Tolyl)pyrimidin-4-yl)piperazine-1-carboximidamide], in assay [1], the IC50 amounted to 5.35 ± 0.22 µM. The Kd in assay [3] is 6.67 µM.

As to `O=C(/C=C/c1ccc(O)c(O)c1)O[C@H](Cc1ccc(O)c(O)c1)C(=O)O` [Rosmarinic acid], the IC50 in assay [2] (reference inhibitor of MARK4, read-out: IC50 of the reference inhibitor) was roughly 6.2 µM.

Regarding `N=C(N)N1CCN(c2cc(-c3cc4ccccc4s3)ncn2)CC1` [Compound 9, 4-(6-(benzo[b]thiophen-2-yl)pyrimidin-4-yl)piperazine-1-carboximidamide], the IC50 in assay [1] is 6.68 ± 0.8 µM. Besides, the Kd in assay [3] was 8.77 µM.

In the case of `COc1cc2c(cc1OC)C(=O)C(CC1CCN(Cc3ccccc3)CC1)C2` (centres unmarked) [donepezil], the IC50 in assay [2] (setting [4]) was 5.3 µM.

For the compound `N=C(N)N1CCN(c2cc(-c3ccc(Cl)c(Cl)c3)ncn2)CC1` [Compound 6, 4-(6-(3,4-Dichlorophenyl)pyrimidin-4-yl)piperazine-1-carboximidamide], the IC50 in assay [1] was found to be 11.8 ± 1.19 µM.
